# Patent US20230048349A1, “RECIRCULATING AQUACULTURE SYSTEM AND METHODS THEREOF” (THE TEXAS A&M UNIVERSITY SYSTEM, priority 2021, published 2023)
# Where two headings read alike, the source gives them in different places. Marks after values point to notes of the source that are not given here.
# Assays:
# [1] = system: Aeromonas hydrophila; test: Growth inhibition test in liquid medium (OD600); format: cell-based; settings: A. hydrophila; for IC50: 4-parameter logistic fit
# Experimental: (§1) These compounds were used to assess the antimicrobial efficacy of PHB and chitosan under the best scenario. Various concentrations of PHB intermediates (5-125 mM), COS (0.2-3 mM), or mixtures of 3-HB+COS (i.e., Mixture 1 (4 mM 3-HB+0.1 mM COS), Mixture 2 (12 mM 3-HB+0.3 mM COS), Mixture 3 (24 mM 3-HB+0.6 mM COS), and Mixture 4 (60 mM 3-HB+1.5 mM COS)) were used based on previously in vitro antimicrobial studies using PHB or chitosan. For S. agalactiae and RHA1, tryptic soy broth (TSB) and Reasoner's 2A (R2A) media were used, respectively. The pH of all growth mediums (i.e., LB, TSB, or R2A) was adjusted to 6.0 based on the typical pH value found in aquatic animals' gut and the optimized antimicrobial activity of PHB. The culture tubes were inoculated with 2% v/v of the pre-grown strains (optical density (OD600) of 1.0) and incubated at 30° C. under 150 rpm. The bacterial growth was determined by absorbance at OD600. The growth of tested strains in the absence of PHB or chitosan intermediates were used as controls. The inhibition efficiency (%) was calculated using Eq. (1): […]
# (§2) where ODcontrol and ODsample refer to the highest optical densities of the growth curves for the controls and samples, respectively.
# [2] = system: Bacillus megaterium; test: Growth inhibition test in liquid medium (OD600); format: cell-based; settings: B. megaterium; for IC50: 4-parameter logistic fit; for MIC: pH 6.0, 30° C.
# Experimental: as §1, §2
# [3] = system: Escherichia coli; test: Growth inhibition test in liquid medium (OD600); format: cell-based; settings: E. coli; for MIC: pH 6.0, 30° C.
# Experimental: as §1, §2
# [4] = system: Rhodococcus jostii RHA1; test: Growth inhibition test in liquid medium (OD600); format: cell-based; settings: R. jostii RHA1; for IC50: 4-parameter logistic fit; for MIC: pH 6.0, 30° C.
# Experimental: as §1, §2
# [5] = system: Streptococcus agalactiae; test: Growth inhibition test in liquid medium (OD600); format: cell-based; settings: S. agalactide; for MIC: pH 6.0, 30° C.
# Experimental: as §1, §2
# [6] = system: Vibrio campbellii; test: Growth inhibition test in liquid medium (OD600); format: cell-based
# Experimental: as §1, §2
# [7] = system: V. campbellii and A. hydrophila; test: Growth inhibition test, ranges stated over two G− pathogens (Example 8); format: cell-based, Vibrio campbellii; Aeromonas hydrophila; settings: range over V. campbellii and A. hydrophila
# Experimental: as §1, §2
# [8] = system: V. campbellii and A. hydrophila; test: Growth inhibition test of SCFAs and MCFAs, ranges over two G− pathogens (Example 15); format: cell-based, Vibrio campbellii; Aeromonas hydrophila; settings: range over V. campbellii and A. hydrophila; LB pH 6
# Experimental: (§3) Growth Inhibition Tests: Antipathogenic Properties of SCFAs and MCFAs. Growth inhibition tests to measure optical density (OD600) and calculate % inhibition efficiencies, minimum, and median inhibitory concentrations (MIC and IC50) were conducted as described previously. […] The PHA intermediates (SCFAs and MCFAs) are water-soluble, representing the PHA degradation products in the gastrointestinal tract of aquatic animals, allowing to assess the antipathogenic efficacy of PHA under the best scenario. The culture tubes were incubated at 30° C. under 150 rpm. The growths of tested strains in the absence of PHA intermediates were used as controls.
# [9] = system: S. agalactiae; test: Growth inhibition test of SCFAs and MCFAs (Example 15); format: cell-based, Streptococcus agalactiae; settings: Streptococcus agalactiae; S. agalactiae
# Experimental: as §3
# [10] = system: Vibrio-challenged Artemia; test: Artemia pathogen challenge test (Example 17); format: in vivo, Artemia franciscana; settings: after three days; supplement 1 g/L; V. campbellii 10^8 cells/ml
# Experimental: The pathogen challenge tests were designed to determine the effects of individual supplements on the survival of Vibrio-challenged Artemia. The pathogen challenge tests were conducted as described in the starvation tests, except that Artemia cultures (one day old) with each of the abovementioned supplements (1 g/L) were exposed to a lethal dose (10^8 cells/ml) of live V. campbellii as determined previously. In all treatments, 250 mg/L of yeast was added initially as a feed. Unchallenged and Vibrio-challenged Artemia were used as negative and positive controls, respectively. The survival of Artemia was monitored daily for three days.
# [11] = Vibrio campbellii, read-out: Inhibition Efficiency (%)
compound,measurement,setting,value
"CC(O)CC(=O)O (centres unmarked) [3-HB, 3-hydroxybutyrate]",Inhibition Efficiency (%),[1]; 5 mM,2.7 ± 1.26%
same,Inhibition Efficiency (%),[1]; 25 mM,24.1 ± 2.70%
same,Inhibition Efficiency (%),[1]; 50 mM,31.1 ± 3.59%
same,Inhibition Efficiency (%),[1]; 125 mM,100%
same,IC50,[1],57.7 mM
same,MIC,"[1]; pH 6.0, 30° C.",133 mM
same,Inhibition Efficiency (%),[2]; 5 mM,6.52 ± 3.48%
same,Inhibition Efficiency (%),[2]; 25 mM,−1.35 ± 1.04%
same,Inhibition Efficiency (%),[2]; 50 mM,12.9 ± 0.94%
same,Inhibition Efficiency (%),[2]; 125 mM,17.0 ± 14.4%
same,IC50,[2],N.I.
same,MIC,[2],N.I.
same,Inhibition Efficiency (%),[3]; 5 mM,2.68 ± 0.67%
same,Inhibition Efficiency (%),[3]; 25 mM,9.15 ± 3.12%
same,Inhibition Efficiency (%),[3]; 50 mM,24.5 ± 2.23%
same,Inhibition Efficiency (%),[3]; 125 mM,26.5 ± 1.34%
same,MIC,[3],510 mM
same,Inhibition Efficiency (%),[4]; 5 mM,−32.3 ± 2.20%
same,Inhibition Efficiency (%),[4]; 25 mM,−87.3 ± 4.00%
same,Inhibition Efficiency (%),[4]; 50 mM,−61.7 ± 0.58%
same,Inhibition Efficiency (%),[4]; 125 mM,100%
same,IC50,[4],N.I.
same,MIC,[4],N.I.
same,Inhibition Efficiency (%),[5]; 5 mM,0.75 ± 0.01%
same,Inhibition Efficiency (%),[5]; 25 mM,0.75 ± 0.03%
same,Inhibition Efficiency (%),[5]; 50 mM,0.75 ± 0.01%
same,Inhibition Efficiency (%),[5]; 125 mM,13.8 ± 0.15%
same,MIC,[5],945 mM
same,Inhibition Efficiency (%),"[6]; 5 mM, V. campellii",1.27 ± 1.07%
same,Inhibition Efficiency (%),"[6]; 25 mM, V. campellii",14.0 ± 1.78%
same,Inhibition Efficiency (%),"[6]; 50 mM, V. campellii",42.4 ± 5.88%
same,Inhibition Efficiency (%),"[6]; 125 mM, V. campellii",100%
same,IC50,"[6]; V. campellii, 4-parameter logistic fit, read-out: IC50",53 mM
same,MIC,"[6]; V. campellii, pH 6.0, 30° C.",111.5 mM
same,IC50,[7],53 to 58 mM
same,MIC,[7],111.5 to 133 mM
chitosan oligosaccharide lactate [COS],Inhibition Efficiency (%),[1]; 0.2 mM,4.81 ± 0.11%
same,Inhibition Efficiency (%),[1]; 0.6 mM,−7.30 ± 0.40%
same,Inhibition Efficiency (%),[1]; 1.2 mM,77.6 ± 0.28%
same,Inhibition Efficiency (%),[1]; 3 mM,74.2 ± 0.61%
same,Inhibition Efficiency (%),[2]; 0.2 mM,100%
same,Inhibition Efficiency (%),[2]; 0.6 mM,100%
same,Inhibition Efficiency (%),[2]; 1.2 mM,100%
same,Inhibition Efficiency (%),[2]; 3 mM,100%
same,MIC,[2],<0.2^c mM
same,Inhibition Efficiency (%),[3]; 0.2 mM,60.6 ± 4.56%
same,Inhibition Efficiency (%),[3]; 0.6 mM,90.6 ± 0.91%
same,Inhibition Efficiency (%),[3]; 1.2 mM,100%
same,Inhibition Efficiency (%),[3]; 3 mM,100%
same,MIC,[3],1.88 mM
same,Inhibition Efficiency (%),[4]; 0.2 mM,100%
same,Inhibition Efficiency (%),[4]; 0.6 mM,100%
same,Inhibition Efficiency (%),[4]; 1.2 mM,100%
same,Inhibition Efficiency (%),[4]; 3 mM,100%
same,MIC,[4],<0.2 mM
same,Inhibition Efficiency (%),[5]; 0.6 mM,95.4 ± 0.01%
same,Inhibition Efficiency (%),[5]; 1.2 mM,100%
same,Inhibition Efficiency (%),[5]; 3 mM,100%
same,MIC,[5],1.08 mM
same,Inhibition Efficiency (%),"[6]; 0.2 mM, V. campellii",76.5 ± 1.13%
same,Inhibition Efficiency (%),"[6]; 0.6 mM, V. campellii",93.0 ± 1.10%
same,Inhibition Efficiency (%),"[6]; 1.2 mM, V. campellii",95.0 ± 0.23%
same,Inhibition Efficiency (%),"[6]; 3 mM, V. campellii",100%
same,MIC,"[6]; V. campellii, pH 6.0, 30° C.",2.36 mM
"CCCC(=O)O [Butyrate, butyrate]",inhibition at 5000 µM,"[1]; Aeromonas hydrophila, 5 mM, read-out: Inhibition Efficiency (%)",0.8 ± 0.22%
same,inhibition at 25000 µM,"[1]; Aeromonas hydrophila, 25 mM, read-out: Inhibition Efficiency (%)",12.7 ± 1.8%
same,inhibition at 50000 µM,"[1]; Aeromonas hydrophila, 50 mM, read-out: Inhibition Efficiency (%)",72.4 ± 5.4%
same,inhibition at 125000 µM,"[1]; Aeromonas hydrophila, 125 mM, read-out: Inhibition Efficiency (%)",100%
same,IC50,[1]; Aeromonas hydrophila,39.7 mM
same,inhibition at 5000 µM,"[2]; Priestia megaterium, 5 mM, read-out: Inhibition Efficiency (%)",-5.8 ± 1.74%
same,inhibition at 25000 µM,"[2]; Priestia megaterium, 25 mM, read-out: Inhibition Efficiency (%)",15.5 ± 1.56%
same,inhibition at 50000 µM,"[2]; Priestia megaterium, 50 mM, read-out: Inhibition Efficiency (%)",100%
same,inhibition at 125000 µM,"[2]; Priestia megaterium, 125 mM, read-out: Inhibition Efficiency (%)",100%
same,IC50,"[2]; Priestia megaterium, read-out: IC50",26.2 mM
same,MIC,"[2]; Priestia megaterium, read-out: MIC",53 mM
same,inhibition at 5000 µM,"[3]; Escherichia coli, 5 mM, read-out: Inhibition Efficiency (%)",5 ± 0.89%
same,inhibition at 25000 µM,"[3]; Escherichia coli, 25 mM, read-out: Inhibition Efficiency (%)",10.7 ± 12%
same,inhibition at 50000 µM,"[3]; Escherichia coli, 50 mM, read-out: Inhibition Efficiency (%)",23 ± 6.24%
same,inhibition at 125000 µM,"[3]; Escherichia coli, 125 mM, read-out: Inhibition Efficiency (%)",71.1 ± 8.25%
same,IC50,"[3]; Escherichia coli, 4-parameter logistic fit",61.2 mM
same,IC50,[4],N.I.
same,MIC,[4],N.I.
same,inhibition at 5000 µM,"[4]; Rhodococcus jostii, 5 mM, read-out: Inhibition Efficiency (%)",-25.2 ± 4.93%
same,inhibition at 25000 µM,"[4]; Rhodococcus jostii, 25 mM, read-out: Inhibition Efficiency (%)",-70.8 ± 2.65%
same,inhibition at 50000 µM,"[4]; Rhodococcus jostii, 50 mM, read-out: Inhibition Efficiency (%)",-92.2 ± 21.6%
same,inhibition at 125000 µM,"[4]; Rhodococcus jostii, 125 mM, read-out: Inhibition Efficiency (%)",100%
same,inhibition at 5000 µM,"[5]; Streptococcus agalactiae, 5 mM, read-out: Inhibition Efficiency (%)",0.75 ± 0.01%
same,inhibition at 25000 µM,"[5]; Streptococcus agalactiae, 25 mM, read-out: Inhibition Efficiency (%)",0.43 ± 0.15%
same,inhibition at 50000 µM,"[5]; Streptococcus agalactiae, 50 mM, read-out: Inhibition Efficiency (%)",10.2 ± 1.83%
same,inhibition at 125000 µM,"[5]; Streptococcus agalactiae, 125 mM, read-out: Inhibition Efficiency (%)",100%
same,IC50,"[5]; Streptococcus agalactiae, 4-parameter logistic fit",83.4 mM
same,IC50,[6]; Vibrio campbellii,3.82 mM
same,MIC,"[6]; Vibrio campbellii, pH 6",25.7 mM
same,inhibition at 5000 µM,[6]; [11],9.14 ± 8.9%
same,inhibition at 25000 µM,[6]; [11],100%
same,inhibition at 50000 µM,[6]; [11],100%
same,inhibition at 125000 µM,[6]; [11],100%
same,IC50,[7],5.8 to 39.7 mM
same,IC50,[8],8.97 to 30.9 mM
same,IC50,[9],57.5 mM
same,survival of Vibrio-challenged Artemia,[10],10%
